Experiment [1] concerns the target T1, NET (Mus musculus, UniProt O55192).
T1 construct: The pellets were collected as synaptosomes; from tissue; host or cells: mouse (C57/B16) brain cortex synaptosomes
The experiment is described as follows: NE transport assay in cortical synaptosomes. It counts as biochemical. The protocol:
Cell culture, transfection of cDNA or siRNA, generation of stable cell lines, preparation of cortical synaptosomes. CHO cells were maintained in DMEM/10% fetal bovine serum (FBS), 2 mM L-glutamine (L-Glu), 100 IU/ml penicillin, 100 μg/ml streptomycin (pen/strep). […]. The stable clones were selected using hygromycin B ([…], Invitrogen) and maintained in Ham's F12/10% FBS/L-Glu/pen/strep supplemented with Zeocin […] (Invitrogen). CAD-NET cells were generated by stably transfecting HA-NET in pcDNA3 into CAD cells and maintained in DMEM/F12/8% FBS/L-Glu/pen/strep/200 μg/ml of G418 (Mediatech). TransIT-LT1 transfection reagent (Mirus) was used for all transfections. All cells were plated on poly-D-lysine coated plates and incubated for 48 hrs for cDNA transfection and for 48 to 72 hrs for siRNA transfection prior to assays. For synaptosomal preparations, brain cortex was dissected from mice (C57/B16, Harlan) and homogenized in 10 mM HEPES, 0.32 M Sucrose, pH 7.4 using a Teflon pestle/homogenizer. Homogenates were centrifuged at 1,000 g, 5 min at 4° C., and then the supernatant were re-centrifuged at 16,000 g, 20 min at 4° C. The pellets were collected as synaptosomes.
Assay buffers, transport assays, Ca^2+ imaging. NE transport assays on synaptosomes (50-100 μg/assay reaction) or cells were described previously (Sung et al., 2003). Uptake assay was carried out in KRH/Ca^2+ (mM: 120 NaCl, 4.7 KCl, 1.2 KH2PO4, 10 HEPES, 1.2 MgSO4, 2.2 CaCl2, pH 7.4,) with 0.1 mM pargylnine, ascorbic acid, tropolone, and 1.8 mg/ml glucose, otherwise mentioned. KRH/EGTA is KRH with 0.2 mM EGTA and without CaCl2. When KRH/EGTA was used, KRH/Ca^2+ for the parallel experiment contained 0.2 mM EGTA as well. Uptake assays were initiated by addition of [^3H]-NE (1-[7,8-^3H] noradrenaline, Amersham Pharmacia) at 50 nM final concentration. For kinetics assays, 50, 100, 200 nM of [^3H]-NE, 400, 600, 800, 1,000, 1,200, 1,500 nM of 20% [^3H]-NE and 80% of unlabeled NE (Sigma) were used. Nonspecific uptake was defined using 1-10 μM desipramine. All assays were carried out at 37° C. for 10 min in triplicates. Ca^2+ imaging was performed as described previously (Apparsundaram et al., 2001). CHO cells were pre-loaded with […] fura-2/acetoxymethyl ester (fura-2/AM, Molecular Probe) and superfused with KRH/EGTA and 1 μM thapsigargin for 10 min. The medium was replaced with KRH/Ca^2+ or KRH/EGTA before measurement of intracellular Ca^2+. All experiments derive from at least 3 independent data and mean values were evaluated using a two-tailed Student's t-test or a one-way ANOVA, followed by Tukey's test, with p<0.05 considered significant (*). Data were analyzed using GraphPad Prism 4.
Protocols for restoration and depletion of Ca^2+ For uptake assay, synaptosomes were pre-incubated with drugs in KRH/Ca^2+. For increase of Ca^2+, synaptosomes were re-suspended in KRH/EGTA, transferred to fresh KRH/EGTA (EGTA to EGTA) or KRH/Ca^2+ (EGTA to Ca^2+), and incubated at 37° C. for 5 min prior to the addition of radiolabeled NE. NE uptake activity of synaptosomes in KRH/Ca^2+ was compared to the activity of synaptosomes in KRH/EGTA. For reduction of Ca^2+, synaptosomes were first resuspended in KRH/Ca^2+, divided into 2 aliquots, replaced with fresh KRH/Ca^2+ (Ca^2+ to Ca^2+) or KRH/EGTA (Ca^2+ to EGTA), and incubated at 37° C. for 5 min prior to the addition of radiolabeled NE. NE uptake activity of synaptosomes in KRH/EGTA was compared to the activity of synaptosomes in KRH/Ca^2+. Control cells were treated the same way except use of complete media with vehicle. Restoration of Ca^2+ for surface biotinylation was carried out by incubating cells in KRH/EGTA with 0.1-1 μM thapsigargin for 10 min at 37° C. to deplete Ca^2+. Cells were washed once with KRH/EGTA, replaced with KRH/EGTA or KRH/Ca^2+, and incubated for 1 min at RT to 5 min at 37° C. prior to biotinylation. […]

Experiment [2] has as its system human NET. The experiment is described as follows: Surface biotinylation of HA-NET in transiently transfected CHO cells. Type of experiment: cell-based. The note with it: for Change of transporter surface density in response to Ca^2+ manipulations (addition or depletion): HA-tagged NET mutants in CHO cells.
Experiment [3] has as its system NET. Nature of the experiment: Whole cell patch clamp recording of NET currents in SCG neurons. Type of experiment: cell-based, rat. The note with it: 200 μM CdCl2, 5 μM KN93 15 min, 2 μM STO609 20 min. The protocol: Whole Cell Patch Clamp Recording of NET currents. Patch clamp experiments were performed using an amplifier Axopatch 200B with a low-pass filter set at 1 kHz. Quartz patch pipettes with 5-7 MΩ resistance were pulled by a programmable puller (model P-2000, Sutter Instruments Novato, Calif.) and filled with the internal solution containing (in mM): 120 KCl, 2 MgCl2, 10 HEPES, 2 MgATP, 30 dextrose and adjusted to pH 7.35. SCG neurons were washed twice with a control solution containing mMs 130 NaCl, 5 CaCl2, 0.5 MgCl2, 1.3 KCl, 10 HEPES, 34 dextrose adjusted to pH 7.35 before experiments. NET-mediated current was defined as the current recorded in control condition minus the current recorded in presence of 5 μM desipramine. Neurons were clamp at −50 mV and the NET-mediated current was recorded by stepping the membrane voltage to −120 mV for 500 ms before and after a 2 sec depolarizing step at −10 mV. NET-mediated current was studied in the control condition, in presence of 200 μM CdCl2, after 15 min preincubation with 5 μM KN93 and after 20 min preincubation with 2 μM STO609.
Background: Patch clamp records ionic current or voltage across a cell membrane.

The test system of experiment [4] is NET. Nature of the experiment: NE transport assay in CAD-NET cells. It counts as cell-based, human. The note with it: KRH/Ca^2+.
Procedure: Uptake assay was carried out in KRH/Ca^2+ (mM: 120 NaCl, 4.7 KCl, 1.2 KH2PO4, 10 HEPES, 1.2 MgSO4, 2.2 CaCl2, pH 7.4,) with 0.1 mM pargylnine, ascorbic acid, tropolone, and 1.8 mg/ml glucose, otherwise mentioned. KRH/EGTA is KRH with 0.2 mM EGTA and without CaCl2. When KRH/EGTA was used, KRH/Ca^2+ for the parallel experiment contained 0.2 mM EGTA as well. […] Nonspecific uptake was defined using 1-10 μM desipramine. All assays were carried out at 37° C. for 10 min in triplicates. […] All experiments derive from at least 3 independent data and mean values were evaluated using a two-tailed Student's t-test or a one-way ANOVA, followed by Tukey's test, with p<0.05 considered significant (*).
Experiment [5] concerns human NET. Nature of the experiment: [32P] metabolic labeling and immunoprecipitation of NET in stable CHO cells. The note with it: KRH/EGTA to KRH/Ca^2+ for 5 min. Type of experiment: cell-based. The protocol:
Cell culture, transfection of cDNA or siRNA, generation of stable cell lines, preparation of cortical synaptosomes. CHO cells were maintained in DMEM/10% fetal bovine serum (FBS), 2 mM L-glutamine (L-Glu), 100 IU/ml penicillin, 100 μg/ml streptomycin (pen/strep). CHO-NET or CHO-NET T30A cells were generated by stably transfecting HA-NET or HA-NET T30A in pcDNA5/FRT (Invitrogen) into CHO-Flip-In cells (Invitrogen). The stable clones were selected using hygromycin B ([…], Invitrogen) and maintained in Ham's F12/10% FBS/L-Glu/pen/strep supplemented with Zeocin […] (Invitrogen). CAD-NET cells were generated by stably transfecting HA-NET in pcDNA3 into CAD cells and maintained in DMEM/F12/8% FBS/L-Glu/pen/strep/200 μg/ml of G418 (Mediatech). TransIT-LT1 transfection reagent (Mirus) was used for all transfections. All cells were plated on poly-D-lysine coated plates and incubated for 48 hrs for cDNA transfection and for 48 to 72 hrs for siRNA transfection prior to assays. […]
Biochemical analysis and phosphorylation. […] Phosphorylated bands were captured via Phosphoimager (Typhoon 9400, Molecular Dynamics/GE Healthcare Life Sciences) and analyzed using ImageQuant 5.2 (Molecular Dynamics). […] Exposed films of immunoblots were scanned using an Agfa Duoscan T1200 and the captured images processed in Adobe® Photoshop® and quantitated using NIH image.

The test system of experiment [6] is human NET. The experiment is described as follows: NE transport assay in transiently transfected CHO cells. Type of experiment: cell-based.
Target sequence in this assay (P23975 48-617 limits assumed): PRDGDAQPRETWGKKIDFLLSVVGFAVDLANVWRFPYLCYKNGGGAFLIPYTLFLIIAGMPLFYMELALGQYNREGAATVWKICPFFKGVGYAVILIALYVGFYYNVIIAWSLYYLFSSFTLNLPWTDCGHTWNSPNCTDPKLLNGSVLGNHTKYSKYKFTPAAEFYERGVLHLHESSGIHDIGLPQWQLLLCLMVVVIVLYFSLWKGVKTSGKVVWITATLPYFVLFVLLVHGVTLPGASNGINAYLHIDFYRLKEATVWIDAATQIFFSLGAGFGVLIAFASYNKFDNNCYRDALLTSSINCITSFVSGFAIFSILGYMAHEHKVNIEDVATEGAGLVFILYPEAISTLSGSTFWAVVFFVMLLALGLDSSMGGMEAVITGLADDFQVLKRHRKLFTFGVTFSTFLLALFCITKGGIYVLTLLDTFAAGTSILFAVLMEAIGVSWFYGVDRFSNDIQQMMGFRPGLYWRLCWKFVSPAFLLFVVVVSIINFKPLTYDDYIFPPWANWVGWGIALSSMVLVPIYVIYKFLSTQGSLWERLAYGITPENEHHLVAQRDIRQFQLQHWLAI

T1 sequence (O55192 whole entry): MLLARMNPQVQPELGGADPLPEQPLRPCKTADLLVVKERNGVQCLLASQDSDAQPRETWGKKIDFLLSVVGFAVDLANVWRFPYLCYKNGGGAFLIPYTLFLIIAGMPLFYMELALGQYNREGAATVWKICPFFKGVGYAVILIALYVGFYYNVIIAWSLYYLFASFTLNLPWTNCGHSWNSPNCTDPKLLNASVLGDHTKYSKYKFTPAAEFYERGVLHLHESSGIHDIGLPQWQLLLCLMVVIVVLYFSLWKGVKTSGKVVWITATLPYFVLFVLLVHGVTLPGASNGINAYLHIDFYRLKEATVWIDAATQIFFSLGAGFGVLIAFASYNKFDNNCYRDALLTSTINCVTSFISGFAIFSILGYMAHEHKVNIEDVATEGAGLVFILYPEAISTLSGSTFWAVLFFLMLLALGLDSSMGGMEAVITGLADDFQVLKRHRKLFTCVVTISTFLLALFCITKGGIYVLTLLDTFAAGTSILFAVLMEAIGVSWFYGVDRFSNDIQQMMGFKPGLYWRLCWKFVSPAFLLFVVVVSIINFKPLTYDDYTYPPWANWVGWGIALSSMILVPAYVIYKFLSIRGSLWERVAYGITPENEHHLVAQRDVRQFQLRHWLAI

With `NC[C@H](O)c1ccc(O)c(O)c1` [NE, norepinephrine], the “NE transport Vmax” value in experiment [1] (KRH/EGTA) is listed as 0.129+/−0.0129 pmol/mg protein/min.
On to `O=C(O)c1ccc2c3c1cccc3c(=O)n1c3ccccc3nc21` [STO-609], for which the “Effect on Ca^2+-depletion elicited reduction of NET surface density” value in experiment [2] (CHO cells, 5 μM KN93 30 min or 5 μM STO-609 1 hour, Ca^2+ depletion) was “prevented a loss of NET from the surface”. The “Effect on Ca^2+-stimulated elevation of NET surface density” value in experiment [2] (CHO cells, 5 μM KN93 30 min or 5 μM STO-609 1 hour, KRH/EGTA to KRH/Ca^2+) is on record as “completely blocked the increase in surface NET protein”. For the same compound, the “Effect on increase in NET current triggered by prior depolarization” value is “prevented the stimulation-elicited increase in NET currents” in experiment [3] and “converted the stimulation-induced increase into a stimulation-elicited decrease in NET currents” in experiment [3] (listed as STO609). Also, in experiment [4], the “Basal NE transport” value is given as “did not influence basal NE transport”.
For CdCl2, the “Effect on increase in NET current triggered by prior depolarization” value in experiment [3] is reported as “prevented the increase in NET current”.
“NET T30A: human NET with T30 mutated to alanine, HA-tagged”: the “Basal surface expression versus wildtype hNET” value in experiment [2] (CHO cells, n=3) is reported as 117+/−18.5%. Moreover, in experiment [2], the “Change of transporter surface density in response to Ca^2+ manipulations (addition or depletion)” value is recorded as “complete lack of Ca^2+ sensitivity”. The “Phosphorylation following Ca^2+ addition” value in experiment [5] is given as “no phosphorylation”. Moreover, in experiment [6] (15 min Ca^2+ restoration including 10 min transport assay), the “Recovery of NE transport after Ca^2+ depletion” value is recorded as “failed to recover NE transport activity”. Besides, in experiment [6] (transiently transfected CHO cells), the “NE transport activity in KRH/Ca^2+” value is given as “equivalent to wild-type NET”.
Take “NET T30E: human NET mutant designed to mimic constitutive phosphorylation at T30”: the “Change of transporter surface density in response to Ca^2+ manipulations (addition or depletion)” value in experiment [2] was “failed to change”.
On to bisindolylmaleimide I [BIM], for which the “NE transport in KRH/Ca^2+ after drug treatment” value in experiment [1] (0.1-1 μM BIM, 5 μM KN93 or 10 μM W7, 15 min at 37° C.) is on record as “inhibited NE transport”. Also, in experiment [1] (pre-incubation with drug), the “Effect on reduction in NET activity on switch from KRH/Ca^2+ to KRH/EGTA” value was “failed to attenuate the loss of NET activity”. The “Effect on elevation in NET activity triggered by addition of Ca^2+” value in experiment [1] (pre-incubation with drug, KRH/EGTA to KRH/Ca^2+) is reported as “no ability to attenuate Ca^2+-stimulated NET activity”.

Values taken from US20090156530A1, “Norepinepherine Transporter Mutants and Uses Thereof” (priority 2007, published 2009).
